Source: ChEMBL document CHEMBL3611986, “Reversal of P-gp and BCRP-mediated MDR by tariquidar derivatives” (Eur J Med Chem, 2015)
Activity calls are given as the source filed them. No cut-off for these calls is given here.

Tests used:
K562 [1] = assay: Induction of UIC2 antibody binding to p-glycoprotein in human K562 cells at 0.5 uM preincubated for 10 mins followed by antibody addition measured after 45 mins by flow cytometry relative to tariquidar; assay type: cell-based
[2] = Cytotoxicity against human HFE cells assessed as cell viability after 72 hrs by MTT assay; assay type: cell-based
[3] = Cytotoxicity against human SW620/AD300 cells assessed as cell viability after 48 hrs by MTT assay; assay type: cell-based; conditions: SW-620, 48 h
[4] = biological target: Multidrug resistance-associated protein 1 (Homo sapiens, UniProt P33527); assay: Inhibition of MRP1 (unknown origin)-mediated calcein-AM efflux expressed in HEK293/MRP1 cells at 0.5 uM after 1 hr by flow cytometry; assay type: cell-based; conditions: hek293/mrp1, 1 h
[5] = Cytotoxicity against human CCD-18Co cells assessed as cell viability after 48 hrs by MTT assay; assay type: cell-based
[6] = biological target: T1, Broad substrate specificity ATP-binding cassette transporter ABCG2 (Homo sapiens, UniProt Q9UNQ0); assay: Induction of 5D3 antibody binding to BCRP in human K562 cells at 0.5 uM preincubated for 10 mins followed by antibody addition measured after 45 mins by flow cytometry relative to tariquidar; assay type: cell-based; conditions: k562, 0.75 h
T1 sequence (Q9UNQ0 whole entry): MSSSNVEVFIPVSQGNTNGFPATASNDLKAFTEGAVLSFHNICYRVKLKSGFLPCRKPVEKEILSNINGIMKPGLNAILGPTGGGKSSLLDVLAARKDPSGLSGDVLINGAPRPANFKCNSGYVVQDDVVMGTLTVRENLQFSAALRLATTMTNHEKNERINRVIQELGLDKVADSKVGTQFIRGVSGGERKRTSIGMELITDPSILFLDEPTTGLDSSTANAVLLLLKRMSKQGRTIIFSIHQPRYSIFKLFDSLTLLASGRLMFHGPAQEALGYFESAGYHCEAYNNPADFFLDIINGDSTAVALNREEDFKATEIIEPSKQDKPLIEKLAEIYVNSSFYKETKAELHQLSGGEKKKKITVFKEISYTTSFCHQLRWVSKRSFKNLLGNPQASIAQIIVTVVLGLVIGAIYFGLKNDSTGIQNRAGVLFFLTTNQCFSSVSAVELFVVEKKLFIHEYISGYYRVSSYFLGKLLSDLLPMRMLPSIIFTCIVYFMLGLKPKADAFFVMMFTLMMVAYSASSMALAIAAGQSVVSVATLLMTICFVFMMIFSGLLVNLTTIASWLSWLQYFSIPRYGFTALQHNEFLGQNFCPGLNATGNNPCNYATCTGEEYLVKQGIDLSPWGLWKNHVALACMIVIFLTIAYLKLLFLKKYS

HCT-116 = assay: Cytotoxicity against human HCT116 cells assessed as cell viability after 48 hrs by MTT assay; assay type: cell-based; conditions: HCT-116, 48 h
SW-620 [7] = assay: Cytotoxicity against human SW620 cells assessed as cell viability after 48 hrs by MTT assay; assay type: cell-based; conditions: SW-620, 48 h
[8] = Potentiation of paclitaxel-induced cytotoxicity against human LCC6 cells at 200 nM after 72 hrs by SRB assay relative to control; assay type: functional
[9] = biological target: T2, ATP-dependent translocase ABCB1 (Homo sapiens, UniProt P08183); assay: Inhibition of p-glycoprotein in human LCC6/MDR cells assessed as increase of paclitaxel-induced cytotoxicity at 200 nM after 72 hrs by SRB assay relative to control; assay type: cell-based; conditions: 0.2 µM
[10] = biological target: T2, ATP-dependent translocase ABCB1; assay: Inhibition of p-glycoprotein-mediated rhodamine-123 efflux in human K562/p-gp cells at 0.5 uM after 1 hr by flow cytometry relative to tariquidar; assay type: cell-based; conditions: 1 h, 0.5 µM
Homo sapiens = species: Homo sapiens; assay: Inhibition of p-glycoprotein (unknown origin) expressed in High five insect cell membranes assessed as ATP hydrolysis after 20 mins by colorimetric ATPase assay
[11] = Cytotoxicity against human LCC6 cells at 200 nM after 72 hrs by SRB assay; assay type: cell-based; conditions: lcc6, 72 h, 0.2 µM
[12] = biological target: T2, ATP-dependent translocase ABCB1; assay: Inhibition of p-glycoprotein-mediated rhodamine-123 efflux in human K562/p-gp cells after 1 hr by flow cytometry; assay type: cell-based
K562 [13] = assay: Effect on rhodamine-123 efflux in wild type human K562 cells at 0.5 uM after 1 hr by flow cytometry; assay type: ADME, cell-based; conditions: k562, 1 h
[14] = Cytotoxicity against human LCC6 cells expressing p-glycoprotein at 200 nM after 72 hrs by SRB assay; assay type: cell-based; conditions: lcc6, 72 h, 0.2 µM
Hepatocyte = assay: Cytotoxicity against rat hepatocytes assessed as cell viability after 72 hrs by MTT assay; assay type: cell-based; conditions: for IC50: Rattus norvegicus, Hepatocyte
SW-620 [15] = assay: Potentiation of doxorubicin-induced cytotoxicity against human SW620 cells at 200 nM after 72 hrs by SRB assay relative to control; assay type: functional
HepG2 [16] = assay: Cytotoxicity against human HepG2 cells expressing p-glycoprotein at 200 nM after 72 hrs by SRB assay; assay type: cell-based; conditions: hepg2, 72 h, 0.2 µM
HepG2 [17] = assay: Cytotoxicity against human HepG2 cells at 200 nM after 72 hrs by SRB assay; assay type: cell-based; conditions: hepg2, 72 h, 0.2 µM
[18] = biological target: T1, Broad substrate specificity ATP-binding cassette transporter ABCG2; assay: Inhibition of BCRP in human MCF-7 FLV1000 cells assessed as increase of mitoxantrone-induced cytotoxicity at 200 nM after 72 hrs by SRB assay relative to control; assay type: cell-based; conditions: 0.2 µM
[19] = Cytotoxicity against human SW620/AD300 cells expressing p-glycoprotein at 200 nM after 72 hrs by SRB assay; assay type: cell-based; conditions: sw-620, 72 h, 0.2 µM
[20] = biological target: T2, ATP-dependent translocase ABCB1; assay: Inhibition of p-glycoprotein in human HepG2 cells assessed as increase of doxorubicin-induced cytotoxicity at 200 nM after 72 hrs by SRB assay relative to control; assay type: cell-based; conditions: hepg2, 72 h, 0.2 µM
[21] = biological target: T2, ATP-dependent translocase ABCB1; assay: Inhibition of p-glycoprotein in human SW620/AD300 cells assessed as increase of doxorubicin-induced cytotoxicity at 200 nM after 72 hrs by SRB assay relative to control; assay type: cell-based; conditions: sw-620, 72 h, 0.2 µM
SW-620 [22] = assay: Cytotoxicity against human SW620 cells at 200 nM after 72 hrs by SRB assay; assay type: cell-based; conditions: sw-620, 72 h, 0.2 µM
[23] = Cytotoxicity against human MCF-7 FLV1000 cells expressing BCRP at 200 nM after 72 hrs by SRB assay; assay type: ADME, cell-based; conditions: mcf-7 flv1000, 72 h, 0.2 µM
MCF7 [24] = assay: Cytotoxicity against human MCF7 cells at 200 nM after 72 hrs by SRB assay; assay type: cell-based; conditions: mcf7, 72 h, 0.2 µM
MCF7 [25] = assay: Potentiation of mitoxantrone-induced cytotoxicity against human MCF7 cells at 200 nM after 72 hrs by SRB assay relative to control; assay type: functional
HepG2 [26] = assay: Potentiation of doxorubicin-induced cytotoxicity against human HepG2 cells at 200 nM after 72 hrs by SRB assay relative to control; assay type: functional
[27] = biological target: T2, ATP-dependent translocase ABCB1; assay: Inhibition of p-glycoprotein-mediated doxorubicin efflux in human K562/p-gp cells at 1 uM after 1 hr by flow cytometry; assay type: cell-based

T2 sequence (P08183 whole entry): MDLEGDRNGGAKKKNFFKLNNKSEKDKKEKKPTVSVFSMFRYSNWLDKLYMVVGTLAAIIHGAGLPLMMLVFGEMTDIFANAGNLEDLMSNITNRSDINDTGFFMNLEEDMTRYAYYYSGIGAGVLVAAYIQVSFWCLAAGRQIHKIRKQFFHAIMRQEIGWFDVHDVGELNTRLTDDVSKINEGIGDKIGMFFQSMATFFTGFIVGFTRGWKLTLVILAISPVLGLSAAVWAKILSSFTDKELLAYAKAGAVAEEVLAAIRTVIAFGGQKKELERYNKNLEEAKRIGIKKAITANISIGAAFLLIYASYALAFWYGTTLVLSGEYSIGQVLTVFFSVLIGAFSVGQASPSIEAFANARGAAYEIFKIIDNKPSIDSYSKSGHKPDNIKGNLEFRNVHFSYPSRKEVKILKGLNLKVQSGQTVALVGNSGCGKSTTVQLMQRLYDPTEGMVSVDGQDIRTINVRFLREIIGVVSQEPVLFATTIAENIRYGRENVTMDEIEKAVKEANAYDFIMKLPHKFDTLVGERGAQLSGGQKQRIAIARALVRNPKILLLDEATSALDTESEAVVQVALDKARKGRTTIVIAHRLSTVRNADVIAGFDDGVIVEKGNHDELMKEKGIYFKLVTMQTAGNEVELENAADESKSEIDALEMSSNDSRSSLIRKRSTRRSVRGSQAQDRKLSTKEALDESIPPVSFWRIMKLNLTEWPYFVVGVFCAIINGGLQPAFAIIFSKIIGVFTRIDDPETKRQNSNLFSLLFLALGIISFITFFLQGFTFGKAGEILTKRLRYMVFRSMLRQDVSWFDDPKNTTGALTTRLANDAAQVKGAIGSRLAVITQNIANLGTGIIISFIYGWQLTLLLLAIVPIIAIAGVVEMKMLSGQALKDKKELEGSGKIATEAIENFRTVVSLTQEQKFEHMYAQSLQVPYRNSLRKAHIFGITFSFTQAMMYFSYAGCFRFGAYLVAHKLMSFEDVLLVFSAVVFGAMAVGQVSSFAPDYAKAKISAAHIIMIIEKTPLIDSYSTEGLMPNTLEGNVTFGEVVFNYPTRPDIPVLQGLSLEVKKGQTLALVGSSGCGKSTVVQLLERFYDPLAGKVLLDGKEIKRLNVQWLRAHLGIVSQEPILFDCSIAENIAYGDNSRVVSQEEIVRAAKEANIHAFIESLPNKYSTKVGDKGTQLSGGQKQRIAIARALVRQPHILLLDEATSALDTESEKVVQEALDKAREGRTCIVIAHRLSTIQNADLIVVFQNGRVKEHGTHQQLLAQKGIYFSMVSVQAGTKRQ
Sequence of Multidrug resistance-associated protein 1 (P33527 whole entry): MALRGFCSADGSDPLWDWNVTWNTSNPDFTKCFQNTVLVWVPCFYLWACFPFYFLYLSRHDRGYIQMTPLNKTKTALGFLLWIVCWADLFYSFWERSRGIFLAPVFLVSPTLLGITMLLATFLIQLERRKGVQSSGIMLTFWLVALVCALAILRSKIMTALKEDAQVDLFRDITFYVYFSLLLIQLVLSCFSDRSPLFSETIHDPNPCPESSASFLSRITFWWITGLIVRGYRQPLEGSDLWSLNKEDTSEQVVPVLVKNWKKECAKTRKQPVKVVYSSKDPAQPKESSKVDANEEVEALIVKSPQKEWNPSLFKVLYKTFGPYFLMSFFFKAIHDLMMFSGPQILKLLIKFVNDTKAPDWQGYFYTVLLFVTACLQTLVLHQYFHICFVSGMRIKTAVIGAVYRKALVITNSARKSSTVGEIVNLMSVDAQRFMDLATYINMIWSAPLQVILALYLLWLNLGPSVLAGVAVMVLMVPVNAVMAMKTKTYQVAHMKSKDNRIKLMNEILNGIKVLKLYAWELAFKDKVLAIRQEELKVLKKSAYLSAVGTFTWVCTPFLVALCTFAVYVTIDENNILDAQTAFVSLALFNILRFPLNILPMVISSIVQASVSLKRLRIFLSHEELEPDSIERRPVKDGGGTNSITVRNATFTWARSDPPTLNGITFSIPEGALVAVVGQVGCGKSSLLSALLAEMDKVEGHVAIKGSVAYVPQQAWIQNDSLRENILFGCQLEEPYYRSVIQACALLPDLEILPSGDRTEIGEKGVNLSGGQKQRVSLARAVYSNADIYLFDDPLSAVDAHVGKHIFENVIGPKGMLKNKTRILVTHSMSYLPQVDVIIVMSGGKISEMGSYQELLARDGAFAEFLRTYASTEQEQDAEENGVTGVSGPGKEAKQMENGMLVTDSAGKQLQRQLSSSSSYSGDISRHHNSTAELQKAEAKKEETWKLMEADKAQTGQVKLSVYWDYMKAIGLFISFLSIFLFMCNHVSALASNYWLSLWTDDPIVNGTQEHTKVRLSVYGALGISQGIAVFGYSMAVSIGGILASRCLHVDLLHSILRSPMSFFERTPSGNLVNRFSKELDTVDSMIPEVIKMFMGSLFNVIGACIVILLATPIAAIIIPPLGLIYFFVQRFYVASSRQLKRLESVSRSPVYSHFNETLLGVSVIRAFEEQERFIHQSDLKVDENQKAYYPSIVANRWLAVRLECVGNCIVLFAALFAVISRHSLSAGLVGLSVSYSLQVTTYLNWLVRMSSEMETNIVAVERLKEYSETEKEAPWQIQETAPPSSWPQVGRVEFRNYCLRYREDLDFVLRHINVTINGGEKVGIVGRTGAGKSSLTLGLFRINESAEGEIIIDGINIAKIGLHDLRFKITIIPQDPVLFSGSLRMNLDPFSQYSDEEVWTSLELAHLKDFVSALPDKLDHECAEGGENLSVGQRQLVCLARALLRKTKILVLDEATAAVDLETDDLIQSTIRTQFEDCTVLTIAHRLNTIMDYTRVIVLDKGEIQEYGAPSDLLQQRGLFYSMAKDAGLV

Structure (SMILES)	IC50 [2] [µM]	IC50 [3] [µM]	inhibition (INH) [4]	IC50 [5] [µM]	IC50 (HCT-116) [µM]	IC50 (SW-620 [7]) [µM]	IC50 (Hepatocyte) [µM]	further results
COc1cc2c(cc1OC)CN(CCc1ccc(NC(=O)c3ccccc3NS(=O)(=O)c3ccc(C)cc3)cc1)CC2	> 100	> 100	Not Active	> 100	> 100	> 100		Activity (K562 [1]): inactive; Activity [6]: Not Active
CCCCCCCCCCCC(=O)Nc1ccccc1C(=O)Nc1ccc(CCN2CCc3cc(OC)c(OC)cc3C2)cc1	> 100	> 100	Not Active	> 100	> 100	> 100		
COc1cc2c(cc1OC)CN(CCc1ccc(NC(=O)c3ccccc3NS(=O)(=O)c3ccc(F)cc3)cc1)CC2	> 100	> 100	Not Active	> 100	> 100	> 100		
COc1cc2c(cc1OC)CN(CCc1ccc(NC(=O)c3cc(OC)c(OC)cc3NS(=O)(=O)c3ccc(C(C)(C)C)cc3)cc1)CC2	> 5	> 100	Not Active	> 100	> 100	> 100		Activity (K562 [1]): 70.7%; fold change (FC) [8]: 1; fold change (FC) [9]: 21; inhibition (INH) [10]: Active; inhibition (Homo sapiens): Dose-dependent effect; Activity [11]: Non-toxic; inhibition (INH) [12]: Dose-dependent effect; Activity (K562 [13]): Non-toxic; Activity [14]: Non-toxic
COc1cc2c(cc1OC)CN(CCc1ccc(NC(=O)c3cc(OC)c(OC)cc3NS(=O)(=O)c3ccc(C(F)(F)F)cc3)cc1)CC2	> 100	> 100	Not Active	> 100	25	> 100	50	
COc1cc2c(cc1OC)CN(CCc1ccc(NC(=O)c3cc(OC)c(OC)cc3NC(=O)c3cnc4ccccc4c3)cc1)CC2 [TARIQUIDAR]	1.28	25	Not Active	25	12.5	25	25	fold change (FC) (SW-620 [15]): 0.57; Activity (HepG2 [16]): Non-toxic; fold change (FC) [8]: 1.1; Activity (HepG2 [17]): Non-toxic; fold change (FC) [9]: 1.9; fold change (FC) [18]: 3.7; Activity [19]: Non-toxic; fold change (FC) [20]: 0.32; fold change (FC) [21]: 1.85; Activity [11]: Non-toxic; Activity (SW-620 [22]): Non-toxic; Activity [23]: Non-toxic; Activity (MCF7 [24]): Non-toxic; fold change (FC) (MCF7 [25]): 0.8; Activity [14]: Non-toxic; fold change (FC) (HepG2 [26]): 0.23
COc1cc2c(cc1OC)CN(CCc1ccc(NC(=O)c3ccccc3NC(=O)OCC3c4ccccc4-c4ccccc43)cc1)CC2	> 100	> 100	Not Active	> 100	> 100	> 100		
CCCS(=O)(=O)Nc1ccccc1C(=O)Nc1ccc(CCN2CCc3cc(OC)c(OC)cc3C2)cc1	> 100	> 100	Not Active	> 100	> 100	> 100		
COc1cc2c(cc1OC)CN(CCc1ccc(NC(=O)c3ccccc3NS(=O)(=O)c3ccc(C(F)(F)F)cc3)cc1)CC2	> 100	> 100	Not Active	> 100	25	> 100	50	
COc1cc2c(cc1OC)CN(CCc1ccc(NC(=O)c3ccccc3NS(=O)(=O)c3c(C)cc(C)cc3C)cc1)CC2	> 100	> 100	Not Active	> 100	> 100	> 100	100	
COc1cc2c(cc1OC)CN(CCc1ccc(NC(=O)c3ccccc3N(S(=O)(=O)c3ccccc3)S(=O)(=O)c3ccccc3)cc1)CC2	> 5	> 100	Not Active	> 100	> 100	> 100		inhibition (INH) [10]: Active; inhibition (INH) [27]: Active; Activity (Hepatocyte; rat, hepatocytes): Non-toxic; inhibition (INH) [12]: Dose-dependent effect; Activity (K562 [13]): Non-toxic
COc1cc2c(cc1OC)CN(CCc1ccc(NC(=O)c3cc(OC)c(OC)cc3NS(=O)(=O)c3ccc(C)cc3)cc1)CC2	> 100	> 100	Not Active	> 100	> 100	> 100	100	
COc1cc2c(cc1OC)CN(CCc1ccc(NC(=O)c3ccccc3NS(=O)(=O)c3ccc(NC(C)=O)cc3)cc1)CC2	> 100	> 100	Not Active	> 100	> 100	> 100		
COc1cc2c(cc1OC)CN(CCc1ccc(NC(=O)c3ccccc3NS(=O)(=O)c3ccccc3F)cc1)CC2	> 100	> 100	Not Active	> 100	> 100	> 100	100	
COc1cc2c(cc1OC)CN(CCc1ccc(NC(=O)c3ccccc3NS(=O)(=O)c3ccc(Cl)cc3)cc1)CC2	> 5	> 100		> 100	> 100	> 100		
COc1cc2c(cc1OC)CN(CCc1ccc(NC(=O)c3ccccc3NS(=O)(=O)c3cccc4c(N(C)C)cccc34)cc1)CC2	> 100	> 100	Not Active	> 100	> 100	> 100		
COc1cc2c(cc1OC)CN(CCc1ccc(NC(=O)c3ccccc3NS(=O)(=O)c3cc(Cl)ccc3Cl)cc1)CC2	> 100	> 100	Not Active	> 100	25	> 100		
COc1ccc(S(=O)(=O)Nc2ccccc2C(=O)Nc2ccc(CCN3CCc4cc(OC)c(OC)cc4C3)cc2)cc1	> 100	> 100	Not Active	> 100	> 100	> 100		
COc1cc2c(cc1OC)CN(CCc1ccc(NC(=O)c3ccccc3NS(=O)(=O)c3ccccc3C(F)(F)F)cc1)CC2	> 100	> 100	Not Active	> 100	> 100	> 100	100	
